Reference: patent US20220192179A1, “BIOMIMETIC ICE-INHIBITING MATERIAL AND CRYOPRESERVATION SOLUTION COMPRISING SAME” (priority 2019, published 2022)
Peptide text beside a SMILES is read from it.

What was measured:
[1] = Ice topography (DIS) observation and thermal hysteresis (TH) measurement, nanoliter osmometer; assay type: physicochemical; settings: deionized aqueous solution; for thermal hysteresis (TH): nanoliter osmometer; for modification effect on the topography of ice crystals (DIS observation): supercooling degree of −0.1 °C
Experimental: DIS observation and TH measurement were performed by using a nanoliter osmometer. A capillary was first melt with the outer flame of a alcohol burner, and simultaneously stretched to produce a capillary with a very fine pore size, and the capillary was then linked to a microsyringe; an immersion oil with higher viscosity was injected into a disk with micron-sized holes, and an aqueous solution in which the material was dissolved was injected into the microholes by using a microsyringe; the droplet was quickly frozen by regulating the temperature, and then slowly heated to give a single crystal ice, the single crystal ice was slowly cooled at the precision of 0.01° C., and the DIS observation and TH test were performed by using a microscope provided with a high-speed camera.

[2] = Ice recrystallization inhibition (IRI) activity, splat-freezing method; assay type: physicochemical; settings: for MLGS (%) relative to that of DPBS, compared with the unbound components: 20 μL DPBS solution, same concentration
Experimental: The IRI activity was assessed using “splat-freezing method”, wherein a sample was dissolved and dispersed into a DPBS solution, and 10-30 μL of the resulting solution was added dropwise onto the surface of a clean silicon disk pre-cooled at -60° C. at a height of no less than 1.0 m; the solution was slowly heated to -6° C. at a speed of 10° C. ·min^−1 by using a hot-cold stage, and was annealed for 30 min at this temperature; the sizes of ice crystals were observed and recorded by using a polarizing microscope and a high-speed camera. The hot-cold stage was sealed to ensure that the internal humidity was about 50%.
The IRI activity was assessed using “splat-freezing method”, wherein a sample was dissolved and dispersed into a DPBS solution, and 10-30 μL of the resultant solution was added dropwise onto the surface of a clean silicon disk precooled at −60° C. at a height of no less than 1.0 m; the solution was slowly heated to −6° C. at a speed of 10° C./min by using a hot-cold stage, and was annealed for 30 min at this temperature; the sizes of ice crystals were observed and recorded by using a polarizing microscope and a high-speed camera. The hot-cold stage was sealed to ensure that the internal humidity was about 50%.
The ice recrystallization inhibition (IRI) activity was assessed using “splat-freezing method”, wherein the two PVAs were separately dissolved and dispersed into DPBS solutions, and 10-30 μL of the resulting solution was added dropwise onto the surface of a clean silicon disk pre-cooled at −60° C. at a height of no less than 1.0 m; the solution was slowly heated to −6° C. at a speed of 10° C.·min^−1 by using a hot-cold stage, and was annealed for 30 min at this temperature; the sizes of ice crystals were observed and recorded by using a polarizing microscope and a high-speed camera. The hot-cold stage was sealed to ensure that the internal humidity was about 50%.

Compound | thermal hysteresis (TH) [1] | modification effect on the topography of ice crystals (DIS observation) [1] | MLGS (%) relative to that of DPBS, compared with the unbound components [2] | ability to inhibit the growth of ice crystals ([2]; result in words) | modification effect on the topography of ice crystals (DIS observation) ([1]; listed as compound of formula (9) where R is —CH3) | modification effect on the topography of ice crystals (DIS observation) ([1]; listed as compound of formula (9) where R is —CH2CH3)
C[C@@H](O)[C@H](N)C(=O)N[C@@H](CCCNC(=N)N)C(=O)O [TR, L-Thr-L-Arg] (H-Thr-Arg-OH) | No TH was determined | weak modification effect on the topography of ice crystals | obviously smaller than that of the DPBS solutions of arginine and threonine at the same concentration |  |  | 
CC(O)C(NC(=O)[C@@H](O)[C@H](O)[C@@H](O)[C@@H](O)CO)C(=O)O (stereo partly drawn) [GDL-L-Thr] | No TH was determined | weak modification effect on the topography of ice crystals | obviously smaller than those of the DPBS solutions of GDL and amino acids at the same concentration | good capability of inhibiting the growth of ice crystals |  | 
GDL-L-Val |  |  | obviously smaller than those of the DPBS solutions of GDL and amino acids at the same concentration |  |  | 
CNCC(=O)N(C)CC(=O)N(C)CC(=O)N(C)CC(=O)N(C)CC(=O)N(C)CC(N)=O [peptoid where R was —CH3] | no TH | rather obvious modification effects on the topography of ice crystals |  |  | excellent modification effect on the topography of ice crystals | 
GDL-L-Ser |  |  | obviously smaller than those of the DPBS solutions of GDL and amino acids at the same concentration |  |  | 
NC(=O)CN(CCC(=O)O)C(=O)CN(CCC(=O)O)C(=O)CN(CCC(=O)O)C(=O)CN(CCC(=O)O)C(=O)CN(CCC(=O)O)C(=O)CNCCC(=O)O [peptoid where R was —CH2CH2COOH] |  | no modification effect on the topography of ice crystals |  |  |  | 
CCNCC(=O)N(CC)CC(=O)N(CC)CC(=O)N(CC)CC(=O)N(CC)CC(=O)N(CC)CC(N)=O [peptoid where R was —CH2CH3] | no TH | rather obvious modification effects on the topography of ice crystals |  |  |  | excellent modification effect on the topography of ice crystals
